From PubChem BioAssay (NCI)
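Briefly, cells in 96-well plates were exposed to five compound concentrations for 48 h, and endpoints were estimated by linear interpolation. GI50 = concentration required for 50% inhibition of growth. TGI marks complete inhibition of growth.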

Assays:
Experiment in all cases: inhibition of tumour cell growth, NCI panel, 48 h
TK-10 renal = system: TK-10 renal
MALME-3M melanoma = system: MALME-3M melanoma
UACC-257 melanoma = system: UACC-257 melanoma
NCI-H23 lung = system: NCI-H23 lung
HOP-62 NSCLC = system: HOP-62 NSCLC
HOP-92 NSCLC = system: HOP-92 NSCLC
SW-620 colon = system: SW-620 colon
786-0 renal = system: 786-0 renal
OVCAR-5 ovarian = system: OVCAR-5 ovarian
DU-145 prostate = system: DU-145 prostate

## COc1ccccc1-c1ccc2nc(NC(=O)Nc3cc(C(F)(F)F)cc(C(F)(F)F)c3)sc2c1
TK-10 renal
  GI50: 4.03 µM
  TGI: 13.2 µM
MALME-3M melanoma
  GI50: 1.81 µM
  TGI: 4.29 µM
UACC-257 melanoma
  GI50: 2.31 µM
  TGI: 6.52 µM
NCI-H23 lung
  GI50: 2.02 µM
  TGI: 7.09 µM
HOP-62 NSCLC
  GI50: 2.1 µM
  TGI: 4.99 µM
HOP-92 NSCLC
  GI50: 1.19 µM
  TGI: 4.31 µM
SW-620 colon
  GI50: 3.04 µM
  TGI: 11.2 µM
786-0 renal
  GI50: 1.44 µM
  TGI: 3.25 µM
OVCAR-5 ovarian
  GI50: 2.54 µM
  TGI: 9.66 µM
DU-145 prostate
  GI50: 4 µM
  TGI: 14.9 µM

## NC(=O)c1ccc2nc(-c3ccc(C4(N)CCC4)cc3)c(-c3ccccc3)n2n1
TK-10 renal
  GI50: 2.85 µM
  TGI: 27.8 µM
MALME-3M melanoma
  GI50: 1.19 µM
  TGI: 19.7 µM
UACC-257 melanoma
  GI50: 13.2 µM
  TGI: 29.7 µM
NCI-H23 lung
  GI50: 16.4 µM
  TGI: 51.8 µM
HOP-62 NSCLC
  GI50: 11.6 µM
  TGI: 27.7 µM
HOP-92 NSCLC
  GI50: 0.815 µM
  TGI: 14.1 µM
SW-620 colon
  GI50: 15 µM
  TGI: 31.3 µM
786-0 renal
  GI50: 1.23 µM
  TGI: 12.2 µM
OVCAR-5 ovarian
  GI50: 12.5 µM
  TGI: 47 µM
DU-145 prostate
  GI50: 14.8 µM
  TGI: 33.1 µM

## Nc1c(S(=O)(=O)O)cc(Nc2cccc(S(N)(=O)=O)c2)c2c1C(=O)c1ccccc1C2=O
TK-10 renal
  TGI: > 100 µM
MALME-3M melanoma
  TGI: 87.9 µM
UACC-257 melanoma
  TGI: > 100 µM
NCI-H23 lung
  TGI: > 100 µM
HOP-62 NSCLC
  TGI: 71.9 µM
HOP-92 NSCLC
  TGI: > 100 µM
SW-620 colon
  TGI: > 100 µM
786-0 renal
  TGI: > 100 µM
OVCAR-5 ovarian
  TGI: > 100 µM
DU-145 prostate
  TGI: > 100 µM

## Cc1cc(C(=O)N[C@@H](CCC(=O)O)C(=O)O)sc1CC[C@@H]1CNc2nc(N)[nH]c(=O)c2C1
TK-10 renal
  GI50: < 0.0154 µM
  TGI: > 100 µM
MALME-3M melanoma
  GI50: 0.0398 µM
  TGI: > 100 µM
UACC-257 melanoma
  GI50: 0.0559 µM
  TGI: > 100 µM
NCI-H23 lung
  GI50: 0.0952 µM
  TGI: > 100 µM
HOP-62 NSCLC
  GI50: 0.0496 µM
  TGI: > 100 µM
HOP-92 NSCLC
  GI50: 0.0592 µM
  TGI: > 100 µM
SW-620 colon
  GI50: 0.0101 µM
  TGI: > 100 µM
786-0 renal
  GI50: < 0.01 µM
  TGI: > 100 µM
OVCAR-5 ovarian
  GI50: 0.026 µM
  TGI: > 100 µM
DU-145 prostate
  GI50: < 0.0104 µM
  TGI: > 100 µM

## C/C(=C1/N=C(c2ccccc2)OC1=O)c1ccc(C)cc1
TK-10 renal
  TGI: > 100 µM
MALME-3M melanoma
  TGI: > 100 µM
UACC-257 melanoma
  TGI: > 100 µM
NCI-H23 lung
  TGI: > 100 µM
HOP-62 NSCLC
  TGI: > 100 µM
HOP-92 NSCLC
  TGI: > 100 µM
SW-620 colon
  TGI: > 100 µM
786-0 renal
  TGI: > 100 µM
OVCAR-5 ovarian
  TGI: > 100 µM
DU-145 prostate
  TGI: > 100 µM

## O=C1c2ccccc2C(=O)c2c(NC(=O)C(Cl)CCl)cccc21 (stereo not given)
TK-10 renal
  TGI: 18.1 µM
MALME-3M melanoma
  TGI: 47.2 µM
UACC-257 melanoma
  TGI: 36.5 µM
NCI-H23 lung
  TGI: 11.6 µM
HOP-62 NSCLC
  TGI: 23.6 µM
HOP-92 NSCLC
  TGI: 9.82 µM
SW-620 colon
  TGI: 14.7 µM
786-0 renal
  TGI: 11.9 µM
OVCAR-5 ovarian
  TGI: 34.1 µM
DU-145 prostate
  TGI: 24.6 µM

## O=C(CCc1ccco1)NC1CCN(CC2(c3ccc(Cl)cc3)CCC2)CC1
TK-10 renal
  GI50: 14.5 µM
  TGI: 28.3 µM
MALME-3M melanoma
  GI50: 13.8 µM
  TGI: 29.4 µM
UACC-257 melanoma
  GI50: 16.3 µM
  TGI: 31.2 µM
NCI-H23 lung
  GI50: 16.9 µM
  TGI: 38.7 µM
HOP-62 NSCLC
  GI50: 16.3 µM
  TGI: 32.7 µM
HOP-92 NSCLC
  GI50: 4.69 µM
  TGI: 20.3 µM
SW-620 colon
  GI50: 15.5 µM
  TGI: 30.5 µM
786-0 renal
  GI50: 12.6 µM
  TGI: 25.8 µM
OVCAR-5 ovarian
  GI50: 15.1 µM
  TGI: 29.1 µM
DU-145 prostate
  GI50: 19.1 µM
  TGI: 41.3 µM
